Measurements reported in patent US20260028338A1, “HETEROBIFUNCTIONAL COMPOUNDS AND METHODS OF TREATING DISEASE” (Halda Therapeutics OpCo, Inc., priority 2023, published 2026).

How the values were obtained:
[1] = tested on: T-Rex 293 cell line SC cells having increased expression of BCL6 protein; test: Cellular growth inhibition assay, T-Rex 293 SC cells with doxycycline (CellTiter-Glo); type: cell-based; conditions: T-Rex 293 SC cells with 10 ng/mL doxycycline (increased BCL6 expression), 72 hours, CellTiter-Glo 2.0
Procedure: (§1) Exemplary compounds were tested for ability to inhibit the proliferation of the following types of cells: (i) a T-Rex 293 cell line having increased expression of BCL6 protein due to exposure of doxycycline and (ii) a T-Rex 293 cell line lacking increased expression of BCL6 protein.
(§2) The following types of cells were prepared for this experiment: (i) a T-Rex 293 cell line having increased expression of BCL6 protein due to exposure to doxycycline and (ii) a T-Rex 293 cell line lacking increased expression of BCL6 protein. Ability of the test compounds to inhibit proliferation of the foregoing cell types was evaluated according to the procedures set forth below.
(§3) The doxycycline-inducible BCL6 protein expressing cell line was established using the following protocol: T-Rex 293 cells were purchased from Invitrogen (Cat #R71007) and transfected using Lipofectamine 2000 with the wild-type BCL6 protein sequence cloned into the pcDNA4/TO vector. Transfected cells were selected using 400 μg/mL Zeocin (Invitrogen Cat #R25001). Following selection, single clones were raised and maintained in Dulbecco's Modified Eagle Medium (DMEM) supplemented with 10% w/w Tetracycline-free fetal bovine serum (FBS) and 250 μg/mL Zeocin. Clones were analyzed for expression of BCL6 protein in the presence and absence of 10 ng/mL doxycycline (Sigma Cat #D9891), and a single doxycycline-inducible clone (hereinafter “SC”) was selected for use in downstream assays.
(§4) The SC cells were seeded on poly-D-lysine coated, black clear-bottom 384-well plates at 2500/well, in 25 μL Dulbecco's Modified Eagle Medium (DMEM) supplemented with 10% w/w Tetracycline-free fetal bovine serum (FBS) and 1% w/w pen-strep, with or without 10 ng/mL doxycycline. Pen-Strep is a commercially available mixture of penicillin G and streptomycin, which is used in mammalian cell culture media to prevent bacterial contamination. Dulbecco's Modified Eagle Medium (DMEM) supplemented with 10% w/w Tetracycline-free fetal bovine serum (FBS) and 1% w/w pen-strep, with or without 10 ng/mL doxycycline is herein referred to as Treatment Medium. Following seeding of cells in the plates, the plates were spun at 300×g for 30 seconds, then equilibrated to room temperature for 30 minutes, and then deposited in a humidified tissue culture incubator maintained at 37° C. with 5% CO2.
(§5) At 24 hours after seeding of the cells, dilutions of test compound were prepared in DMSO and dissolved in Treatment Medium, to achieve a final DMSO concentration of 0.5% w/w, thereby providing the Test Compound Solution. A 25 μL aliquot of the Test Compound Solution was added to cells in the well plates. An equal volume of a solution containing DMSO and Treatment Medium was used as a negative control. Following treatment of cells with Test Compound Solution or said equal volume of a solution containing DMSO and Treatment Medium, the plates were spun at 300×g for 30 seconds, and then left in an incubator for 72 hours.
(§6) At the end of the treatment duration, cell viability was quantified with CellTiter-Glo 2.0 reagent (Promega Cat #G9243). For this purpose, plates were equilibrated to room temperature for 30 minutes, and then 25 μL of CellTiter-Glo 2.0 reagent was added to cells in the plate wells. Plates were then agitated on a shaker for two minutes at 500 rpm and subsequently incubated at room temperature for 10 minutes. Following incubation, the plates were spun at 3000×g for 30 seconds, then sealed with an optical adhesive cover, and luminescence readings were measured with an EnVision Plate Reader (Perkin Elmer).
(§7) Data was normalized using zero luminescence for baseline. A four-parameter non-linear regression curve fit was applied to dose-response data in GraphPad Prism data analysis software to determine the half-maximal growth inhibitory concentration (GI50) for each test compound.

[2] = tested on: Su-DHL-4 cell line; test: Cellular growth inhibition assay, Su-DHL-4 cells (CellTiter-Glo); type: cell-based; conditions: Homo sapiens; Su-DHL-4 cell line (DLBCL), 72 hours, CellTiter-Glo 2.0
Procedure: (§8) Exemplary compounds were tested for ability to inhibit the proliferation of Su-DHL-4 and Farage cells. Su-DHL-4 and Farage cells are commercially available diffuse large B cell lymphoma cell lines (DLBCL).
(§9) Su-DHL-4 and Farage cells were purchased from American Type Cell Culture (ATCC Cat #CRL-2957/CRL-2630) and then seeded on poly-D-lysine coated, black clear-bottom 384-well plates at 3000/well in 25 μL Roswell Park Memorial Institute media (RPMI-1640) supplemented with 10% w/w Fetal bovine serum (FBS) and 1% w/w Pen-Strep. Pen-Strep is a commercially available mixture of penicillin G and streptomycin, which is used in mammalian cell culture media to prevent bacterial contamination. Roswell Park Memorial Institute media (RPMI-1640) supplemented with 10% w/w fetal bovine serum (FBS), and 1% w/w Pen-Strep is herein referred to as Treatment Medium. Following seeding of cells in the plates, the plates were spun at 300×g for 30 seconds, then equilibrated to room temperature for 30 minutes, and then deposited in a humidified tissue culture incubator maintained at 37° C. with 5% CO2.
as §5, §6, §7

[3] = target: T1, biotinylated BCL6 (5-129) (Homo sapiens, UniProt P41182); test: SPR assay for binding affinity to BCL6; conditions: Biacore 8K, 25° C., immobilized biotinylated BCL6 (5-129)
T1 construct: biotinylated BCL6 (5-129) was diluted in 10 mM HEPES pH 7.4; biotin (biotinylated)
Procedure: Exemplary compounds were tested for ability to bind to B-cell lymphoma 6 (BCL6) protein.
Binding studies by surface plasmon resonance (SPR) were performed using a Biacore 8K (Cytiva) instrument at 25° C. Briefly, biotinylated BCL6 (5-129) was diluted in 10 mM HEPES pH 7.4, 150 mM NaCl, 0.05% Surfactant P20, 0.5 mM TCEP, 3% DMSO to 1-5 μg/mL and was immobilized on an SA sensor chip (Cytiva, BR100032), resulting in surface densities at 1000-3000 resonance units (RUs). Test compounds were serially diluted five times in the same buffer and were injected to the immobilized surface. Kinetic determination experiments were performed using single-cycle kinetics with 110-120 s contact time, 1000-4000 s dissociation time, 30 μL/min flow rate. Binding data were analyzed by using Biacore insight evaluation software to determine KD values for test compounds.

[4] = target: T2, His-tagged BRD4 BD2 (333-460) (Homo sapiens, UniProt O60885); test: AlphaLISA competition assay, BRD4 BD2; type: binding; conditions: BRD4-BD2, AlphaLISA competition with biotinylated histone H4K5/8/12/16(Ac) peptide, 20 nM
T2 construct: The same assay was developed for His-tagged BRD4 BD2 (333-460) and biotinylated histone H4K5/8/12/16(Ac) peptide
Procedure: (§10) Exemplary compounds were tested for ability to bind to bromodomain-containing protein 4 (BRD4).
(§11) Compounds were tested using a developed AlphaLISA competition assay. Briefly, His-tagged BRD4 BD1 (46-168) and biotinylated histone H4K5/8/12/16(Ac) peptide (ANASPEC, AS-64989-1) were incubated in 20 mM HEPES pH 7.5, 100 mM NaCl, 0.5 mM TCEP, 0.1% BSA, 0.02% CHAPS at a final concentration of 10 nM. Test compounds were serially diluted ten times in the same buffer and were added to the BRD4-peptide mixture for 1 h incubation at room temperature. Following incubation, Streptavidin AlphaLISA acceptor beads (PerkinElmer, AL125M) were added to BRD4-peptide-compound samples to a final concentration of 0.01 mg/mL for a 0.5 h incubation at room temperature in the dark. Following incubation, the same amount of Nickel Chelate Alpha donor beads (PerkinElmer, AS101M) were added to the samples for a final 1 h incubation. The AlphaLISA signals were measured using an EnVision plate reader (PerkinElmer). The data were uploaded to Screening Ultra (Dotmatics) to determine the half-maximal inhibitory concentration (IC50) for each test compound.
The same assay was developed for His-tagged BRD4 BD2 (333-460) and biotinylated histone H4K5/8/12/16(Ac) peptide at a final concentration of 20 nM.

[5] = target: T3, His-tagged BRD4 BD1 (46-168) (Homo sapiens, UniProt O60885); test: AlphaLISA competition assay, BRD4 BD1; type: binding; conditions: BRD4-BD1, AlphaLISA competition with biotinylated histone H4K5/8/12/16(Ac) peptide, 10 nM
T3 construct: His-tagged BRD4 BD1 (46-168) and biotinylated histone H4K5/8/12/16(Ac) peptide
Procedure: as §10, §11

[6] = tested on: T-Rex 293 cell line SC cells lacking increased expression of BCL6 protein; test: Cellular growth inhibition assay, T-Rex 293 SC cells without doxycycline (CellTiter-Glo); type: cell-based; conditions: T-Rex 293 SC cells not exposed to doxycycline (no increased BCL6 expression), 72 hours, CellTiter-Glo 2.0
Procedure: as §1, §2, §3, §4, §5, §6, §7

[7] = tested on: Farage cell line; test: Cellular growth inhibition assay, Farage cells (CellTiter-Glo); type: cell-based; conditions: Farage cell line (DLBCL), 72 hours, CellTiter-Glo 2.0
Procedure: as §8, §9, §5, §6, §7

Compound | GI50 [1] [nM] | GI50 [2] [nM] | Kd [3] [nM] | IC50 [4] [nM] | IC50 [5] [nM] | GI50 [6] [nM] | GI50 [7] [nM]
CCS(=O)(=O)Nc1ccc(Oc2cccc(OCCN3CCN(CCN4CCN(c5ncc(Cl)c(Nc6ccc7c(c6)cc(OCC(=O)NC)c(=O)n7C)n5)CC4)CC3)c2)c(-c2cn(C)c(=O)c3[nH]ccc23)c1 [Compound I-15] | < 500 | < 500 | 1 to 10 | < 5 | < 5 | 500 to 1500 | < 500
CNC(=O)COc1cc2cc(Nc3nc(N4CCN(CCN5CCN(CCOc6cccc(Oc7ccc(C(C)(C)O)cc7-c7cn(C)c(=O)c8[nH]ccc78)c6)CC5)CC4)ncc3Cl)ccc2n(C)c1=O [Compound I-23, 2-[[6-[[5-chloro-2-[4-[2-[4-[2-[3-[4-(1-hydroxy-1-methyl-ethyl)-2-(6-methyl-7-oxo-1H-pyrrolo[2,3-c]pyridin-4-yl)phenoxy]phenoxy]ethyl]piperazin-1-yl]ethyl]piperazin-1-yl]pyrimidin-4-yl]amino]-1-methyl-2-oxo-3-quinolyl]oxy]-N-methyl-acetamide] | < 500 | < 500 | 1 to 10 | < 5 | < 5 | 500 to 1500 | < 500
CCS(=O)(=O)Nc1ccc(Oc2cccc(OCCN3CCN(CC4CCN(c5ncc(Cl)c(Nc6ccc7c(c6)cc(OCC(=O)NC)c(=O)n7C)n5)CC4)CC3)c2)c(-c2cn(C)c(=O)c3[nH]ccc23)c1 [Compound I-4] | < 500 | < 500 | > 100 | 5 to 50 | 50 to 500 | < 500 | 
CNC(=O)COc1cc2cc(Nc3nc(N4CCC(CCN5CCN(CCOc6cccc(Oc7ccc(C(C)(C)O)cc7-c7cn(C)c(=O)c8[nH]ccc78)c6)CC5)CC4)ncc3Cl)ccc2n(C)c1=O [Compound I-24] | < 500 | < 500 | 1 to 10 | < 5 | 50 to 500 | < 500 | < 500
CNC(=O)COc1cc2cc(Nc3nc(N4CCC(CC5CN(CC6CC(Oc7ccc(C(C)(C)O)cc7-c7cn(C)c(=O)c8[nH]ccc78)C6)C5)CC4)ncc3Cl)ccc2n(C)c1=O (stereo not drawn) [Compound I-22, 2-[[6-[[5-chloro-2-[4-[[1-[[3-[4-(1-hydroxy-1-methyl-ethyl)-2-(6-methyl-7-oxo-1H-pyrrolo[2,3-c]pyridin-4-yl)phenoxy]cyclobutyl]methyl]azetidin-3-yl]methyl]-1-piperidyl]pyrimidin-4-yl]amino]-1-methyl-2-oxo-3-quinolyl]oxy]-N-methyl-acetamide] | < 500 | < 500 | 1 to 10 | < 5 | < 5 | < 500 | < 500
CNC(=O)COc1cc2cc(Nc3nc(N4CCC(CCN5CCN(CCN(C)[C@H]6C[C@H](Oc7ccc(C(C)(C)O)cc7-c7cn(C)c(=O)c8[nH]ccc78)C6)CC5)CC4)ncc3Cl)ccc2n(C)c1=O [Compound I-21] | < 500 | < 500 | 1 to 10 | < 5 | < 5 | 1500 to 3000 | < 500
CNC(=O)COc1cc2cc(Nc3nc(N4CCCC5(CC(Oc6ccc(C7=N[C@@H](Cc8ncco8)c8nnc(C)n8-c8sc(C)c(C)c87)cc6)C5)C4)ncc3Cl)ccc2n(C)c1=O (stereo partly drawn) [Compound I-27] | < 500 | < 500 | > 100 | < 5 | 5 to 50 | < 500 | < 500
CNC(=O)COc1cc2cc(Nc3nc(N4CCC(CN5CC(Oc6ccc(C7=N[C@@H](Cc8ncco8)c8nnc(C)n8-c8sc(C)c(C)c87)cc6)C5)CC4)ncc3Cl)ccc2n(C)c1=O [Compound I-26] | < 500 | < 500 | 10 to 100 | < 5 | < 5 | < 500 | 
